Data set [1] concerns the target T1, DNA topoisomerase 1 (Homo sapiens) (UniProt P11387).
T1 sequence (whole entry): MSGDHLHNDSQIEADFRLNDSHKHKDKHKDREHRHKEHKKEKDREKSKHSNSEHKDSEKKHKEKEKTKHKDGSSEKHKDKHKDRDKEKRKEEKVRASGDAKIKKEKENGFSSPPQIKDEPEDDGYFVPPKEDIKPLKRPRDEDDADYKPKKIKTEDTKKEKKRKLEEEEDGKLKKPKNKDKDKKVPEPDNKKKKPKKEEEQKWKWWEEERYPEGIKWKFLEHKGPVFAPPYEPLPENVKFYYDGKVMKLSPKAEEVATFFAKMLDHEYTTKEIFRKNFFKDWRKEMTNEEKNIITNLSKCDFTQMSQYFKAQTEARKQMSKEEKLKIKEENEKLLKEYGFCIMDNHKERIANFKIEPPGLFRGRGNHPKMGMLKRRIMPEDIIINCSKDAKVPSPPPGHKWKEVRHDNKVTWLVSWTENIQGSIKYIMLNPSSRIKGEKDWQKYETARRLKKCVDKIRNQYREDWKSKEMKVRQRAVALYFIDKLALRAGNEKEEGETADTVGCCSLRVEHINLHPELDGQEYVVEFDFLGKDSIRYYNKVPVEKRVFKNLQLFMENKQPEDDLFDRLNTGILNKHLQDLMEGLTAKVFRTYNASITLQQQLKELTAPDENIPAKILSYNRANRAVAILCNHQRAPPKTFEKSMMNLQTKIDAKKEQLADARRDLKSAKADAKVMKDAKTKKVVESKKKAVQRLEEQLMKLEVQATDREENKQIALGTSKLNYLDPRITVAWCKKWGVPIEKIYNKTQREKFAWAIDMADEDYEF
The data set is described as follows: Inhibition of human DNA topoisomerase 1 assessed as intercalate into DNA at 312 uM.

Data set [2] has as its target T1, DNA topoisomerase 1 (Homo sapiens). The data set is described as follows: Inhibition of human DNA topoisomerase 1-mediated relaxation of supercoiled DNA at 63 to 125 uM.
The target in data set [3] is T2, DNA topoisomerase 1 (Homo sapiens, UniProt P11387).
T2 sequence (P11387 whole entry): T1 sequence (whole entry)
In words: Inhibition of human DNA topoisomerase 1-mediated relaxation of supercoiled DNA by gel electrophoresis.

Data set [4] addresses DNA topoisomerase 2-alpha (Homo sapiens, UniProt P11388). In words: Inhibition of human DNA topoisomerase 2-mediated relaxation of supercoiled DNA by gel electrophoresis.
Data set [5] relates to A549. The data set is described as follows: Cytotoxicity against human A549 cells after 48 hrs by WST8 assay. It counts as functional. To be noted: A549, 48 h. In general terms: Formazan colour is commonly taken as a measure of viable cells.
The subject of data set [6] is PC-3. The data set is described as follows: Cytotoxicity against human PC3 cells after 48 hrs by WST8 assay. It counts as functional. The following applies: PC-3, 48 h.
Data set [7] deals with HL-60. The data set is described as follows: Cytotoxicity against human HL60 cells after 48 hrs by WST8 assay. It counts as functional. To be noted: HL-60, 48 h.
Data set [8] has as its system PANC-1. In words: Cytotoxicity against human PANC1 cells after 48 hrs by WST8 assay. To be noted: PANC-1, 48 h. The class given is functional.
Data set [9] can be described thus: Cytotoxicity against human MRC5 cells after 48 hrs by WST8 assay. It counts as cell-based.
Data set [10] deals with T1, DNA topoisomerase 1 (Homo sapiens). The data set is described as follows: Inhibition of human DNA topoisomerase 1-mediated relaxation of supercoiled DNA at 312 uM.
The test system of data set [11] is A549. In words: Cytotoxicity against human A549 cells at 25 uM after 48 hrs by WST8 assay. It counts as functional, cell-based.
Data set [12] has as its system PC-3. The data set is described as follows: Cytotoxicity against human PC3 cells at 25 uM after 48 hrs by WST8 assay. The class given is functional, cell-based.
Data set [13] deals with HL-60. The data set is described as follows: Cytotoxicity against human HL60 cells at 25 uM after 48 hrs by WST8 assay. The class given is functional, cell-based.
For data set [14], the system named is PANC-1. The data set is described as follows: Cytotoxicity against human PANC1 cells at 25 uM after 48 hrs by WST8 assay. The class given is functional, cell-based.
Data set [15] deals with MRC5. In words: Cytotoxicity against human MRC5 cells at 25 uM after 48 hrs by WST8 assay. It counts as cell-based. To be noted: mrc5, 48 h.
The target of data set [16] is T2, DNA topoisomerase 1. The data set is described as follows: Inhibition of human DNA topoisomerase 1 at free enzyme state.
Data set [17] addresses T1, DNA topoisomerase 1 (Homo sapiens). In words: Inhibition of human DNA topoisomerase 1 assessed as prevention of DNA-enzyme complex formation.
Data set [18] shares this target. The data set is described as follows: Inhibition of human DNA topoisomerase 1 assessed as stabilize DNA-enzyme covalent complex.

SMILES strings stand for the structures. The source made the active and inactive calls. The rule behind the calls is not given here. Where only a bound is given, the exact number is not on record here.

We go through ten compounds from ChEMBL document CHEMBL1157938, “Cytotoxicity and inhibition of DNA topoisomerase I of polyhydroxylated triterpenoids and triterpenoid glycosides” (Bioorg Med Chem Lett, 2010).

Chain of DNA topoisomerase 2-alpha (P11388 whole entry): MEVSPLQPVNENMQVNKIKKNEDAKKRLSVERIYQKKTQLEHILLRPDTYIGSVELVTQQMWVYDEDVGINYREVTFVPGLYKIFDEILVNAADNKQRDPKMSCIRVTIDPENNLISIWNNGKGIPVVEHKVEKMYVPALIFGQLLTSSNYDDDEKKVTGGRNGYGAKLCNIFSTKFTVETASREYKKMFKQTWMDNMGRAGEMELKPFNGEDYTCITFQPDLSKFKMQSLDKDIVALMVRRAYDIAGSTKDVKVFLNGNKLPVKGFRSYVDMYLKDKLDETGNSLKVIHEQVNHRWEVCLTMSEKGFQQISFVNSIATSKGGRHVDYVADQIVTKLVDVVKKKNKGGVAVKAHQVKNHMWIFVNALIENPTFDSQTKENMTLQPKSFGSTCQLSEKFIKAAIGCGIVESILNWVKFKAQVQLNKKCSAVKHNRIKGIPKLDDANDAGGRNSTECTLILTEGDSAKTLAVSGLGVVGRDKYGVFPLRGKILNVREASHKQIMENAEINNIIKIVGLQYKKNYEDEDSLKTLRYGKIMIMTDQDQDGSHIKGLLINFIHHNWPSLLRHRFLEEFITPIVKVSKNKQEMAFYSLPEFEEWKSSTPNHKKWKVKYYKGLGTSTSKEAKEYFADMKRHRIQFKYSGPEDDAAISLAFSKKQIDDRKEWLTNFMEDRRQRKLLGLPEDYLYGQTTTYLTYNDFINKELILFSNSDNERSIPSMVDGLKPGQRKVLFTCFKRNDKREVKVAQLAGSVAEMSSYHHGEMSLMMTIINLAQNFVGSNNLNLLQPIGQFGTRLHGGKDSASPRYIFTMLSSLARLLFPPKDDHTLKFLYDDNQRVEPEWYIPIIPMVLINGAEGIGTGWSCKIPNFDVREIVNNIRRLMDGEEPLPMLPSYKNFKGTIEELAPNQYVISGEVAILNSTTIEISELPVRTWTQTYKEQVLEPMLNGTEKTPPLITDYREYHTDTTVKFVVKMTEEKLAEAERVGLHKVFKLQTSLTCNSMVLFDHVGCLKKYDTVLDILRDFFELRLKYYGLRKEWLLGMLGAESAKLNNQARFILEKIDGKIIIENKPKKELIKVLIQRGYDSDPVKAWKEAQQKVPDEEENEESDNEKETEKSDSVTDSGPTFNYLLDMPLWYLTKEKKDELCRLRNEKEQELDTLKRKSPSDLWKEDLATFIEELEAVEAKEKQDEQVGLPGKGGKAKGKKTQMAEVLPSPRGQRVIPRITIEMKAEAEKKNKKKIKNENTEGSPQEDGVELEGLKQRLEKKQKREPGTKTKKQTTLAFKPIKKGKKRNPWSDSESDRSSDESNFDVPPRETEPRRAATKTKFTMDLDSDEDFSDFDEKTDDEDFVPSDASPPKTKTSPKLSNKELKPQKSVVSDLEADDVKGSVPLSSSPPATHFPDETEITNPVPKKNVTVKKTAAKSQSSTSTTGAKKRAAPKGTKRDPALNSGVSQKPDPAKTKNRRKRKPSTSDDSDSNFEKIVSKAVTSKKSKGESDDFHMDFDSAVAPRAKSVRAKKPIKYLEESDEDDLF

As usually defined, the IC50 is the concentration that inhibits the measured activity by half. Read a high IC50 as weaker potency. As a reminder, the GI50 is the concentration giving 50% growth inhibition. A high value points to less potent growth inhibition. On to `C/C=C(\C)C(=O)O[C@H]1[C@H](OC(=O)/C(C)=C/C)[C@]2(CO)[C@H](O)[C@H](O)[C@]3(C)C(=CC[C@@H]4[C@@]5(C)CC[C@H](O[C@@H]6O[C@H](C(=O)O)[C@@H](O)[C@H](O[C@@H]7O[C@@H](CO)[C@H](O)[C@H]7O)[C@H]6O[C@@H]6O[C@H](CO)[C@@H](O)[C@H](O)[C@H]6O)[C@](C)(CO)[C@@H]5CC[C@]43C)[C@@H]2CC1(C)C` [AESCULIOSIDE IIID], for which the outcome in data set [1] was Active. Also, the inhibition entry in data set [2] was “Active”. Besides, the IC50 in [3] was 48.6 µM; in data set [4], above 250 µM. The GI50 was determined as 23.7 µM in data set [5], 14.6 µM in data set [6], 15.2 µM in data set [7] and 21.7 µM in data set [8]. In addition, the GI50 at 48 h in data set [9] is 9.01 µM.
With `CC1(C)C=C2[C@H]3CC[C@@H]4[C@@]5(C)CC[C@H](O)C(C)(C)[C@@H]5CC[C@@]4(C)[C@]3(C)CC[C@@]2(C)CC1` [GERMANICOL], the inhibition entry in data set [10] is “inactive”. The “growth inhibition (GI)” value in data set [11], in data set [12], in data set [13] and in data set [14] was “inactive” in each case. In addition, in data set [15], the “growth inhibition (GI)” value is “Not Active”.
For `C/C=C(/C)C(=O)O[C@H]1[C@H](OC(=O)/C(C)=C\C)[C@]2(CO)[C@H](O)C[C@]3(C)C(=CC[C@@H]4[C@@]5(C)CC[C@H](O[C@@H]6O[C@H](C(=O)O)[C@@H](O)[C@H](O[C@@H]7O[C@@H](CO)[C@H](O)[C@H]7O)[C@H]6O[C@@H]6O[C@H](CO)[C@@H](O)[C@H](O)[C@H]6O)[C@](C)(CO)[C@@H]5CC[C@]43C)[C@@H]2CC1(C)C`, the inhibition result in [2] and in [17] was “Active” each time. The IC50 was 23.8 µM in data set [16], 53 µM in data set [3] and above 250 µM in data set [4]. Also, the inhibition result in data set [18] was “inactive”. In addition, the GI50 in data set [5] was 6.36 µM; in data set [6], 1.6 µM; in data set [7], 1.94 µM; in data set [8] it was 11.1 µM. The compound further gave a 50% growth inhibitory concentration (GI50) at 48 h in data set [9] of 5.5 µM.
For the compound `C/C=C(/C)C(=O)O[C@H]1[C@H](OC(=O)/C(C)=C\C)[C@]2(CO)[C@H](O)[C@H](O)[C@]3(C)C(=CC[C@@H]4[C@@]5(C)CC[C@H](O[C@@H]6O[C@H](C(=O)O)[C@@H](O)[C@H](O[C@@H]7O[C@@H](CO)[C@H](O)[C@H]7O)[C@H]6O[C@@H]6O[C@H](CO)[C@H](O)[C@H](O)[C@H]6O)C(C)(C)[C@@H]5CC[C@]43C)[C@@H]2CC1(C)C`, the inhibition result in data set [2] and in data set [17] was “Active” throughout. Besides, the IC50 in [16] was 23.8 µM; in [3], 32.7 µM; in data set [4], above 250 µM. Also, the inhibition result in data set [18] was “inactive”. Also, the GI50 was 4.58 µM in data set [5], 14.3 µM in data set [6], 16.9 µM in [7] and 21.5 µM in data set [8]. In addition, the GI50 at 48 h in data set [9] amounted to 5.26 µM.
Turning to `CC(=O)O[C@H]1CC[C@]2(C)[C@H]3CC=C4[C@@H]5CC(C)(C)CC[C@]5(C)CC[C@@]4(C)[C@]3(C)CC[C@H]2C1(C)C` [beta-AMYRIN ACETATE], the inhibition entry in data set [10] is “inactive”. In addition, the “growth inhibition (GI)” value in data set [11], in [12], in data set [13] and in data set [14] was “inactive” in each case. In addition, in data set [15], the “growth inhibition (GI)” value was “Not Active”.
As for `C/C=C(/C)C(=O)O[C@H]1[C@H](O)[C@]2(CO)[C@H](O)[C@H](O)[C@]3(C)C(=CC[C@@H]4[C@@]5(C)CC[C@H](O[C@@H]6O[C@H](C(=O)O)[C@@H](O)[C@H](O[C@@H]7OC[C@@H](O)[C@H](O)[C@H]7O)[C@H]6O[C@@H]6O[C@H](CO)[C@@H](O)[C@H](O)[C@H]6O)C(C)(C)[C@@H]5CC[C@]43C)[C@@H]2CC1(C)C` [ERYNGIOSIDE 94A], in data set [10], the inhibition entry was “inactive”. Also, the IC50 in data set [3] and in data set [4] was above 250 µM throughout. In addition, the GI50 in data set [5] is 7.34 µM; in data set [6], 7.99 µM; in [7], 9.38 µM. Also, the “growth inhibition (GI)” value in data set [14] was “inactive”. The compound also yielded a GI50 at 48 h in data set [9] of 8.51 µM.
Turning to `C/C=C(/C)C(=O)O[C@H]1[C@H](O)[C@]2(CO)[C@H](O)C[C@]3(C)C(=CC[C@@H]4[C@@]5(C)CC[C@H](O[C@@H]6O[C@H](C(=O)O)[C@@H](O)[C@H](O[C@@H]7O[C@@H](CO)[C@H](O)[C@H]7O)[C@H]6O[C@@H]6O[C@H](CO)[C@@H](O)[C@H](O)[C@H]6O)[C@](C)(CO)[C@@H]5CC[C@]43C)[C@@H]2CC1(C)C` [AESCULIOSIDE IIB], the outcome in [1] was Active. The inhibition entry in [10] was “inactive”. Besides, the “growth inhibition (GI)” value in [11], in data set [12], in data set [13] and in [14] was “inactive” throughout. Further, the “growth inhibition (GI)” value in data set [15] was “Not Active”.
For `C/C=C(/C)C(=O)O[C@H]1[C@H](OC(=O)C(C)CC)[C@]2(CO)[C@H](O)C[C@]3(C)C(=CC[C@@H]4[C@@]5(C)CC[C@H](O[C@@H]6O[C@H](C(=O)O)[C@@H](O)[C@H](O[C@@H]7O[C@@H](CO)[C@H](O)[C@H]7O)[C@H]6O[C@@H]6O[C@H](CO)[C@H](O)[C@H](O)[C@H]6O)C(C)(C)[C@@H]5CC[C@]43C)[C@@H]2CC1(C)C` (some centres undefined) [AESCULIOSIDE IVC], the inhibition result in data set [2] and in data set [17] was “Active” throughout. The IC50 in data set [16] was 23.8 µM; in data set [3], 49.7 µM; in [4], above 250 µM. The inhibition entry in data set [18] is “inactive”. Besides, the GI50 in data set [5] turned out to be 10.2 µM; in data set [6], 7.7 µM; in [7], 8.02 µM; in data set [8], 15.6 µM. In data set [9], halving of growth (GI50 at 48 h) required 4.34 µM.
`C/C=C(/C)C(=O)O[C@H]1[C@H](OC(=O)C(C)CC)[C@]2(CO)[C@H](O)[C@H](O)[C@]3(C)C(=CC[C@@H]4[C@@]5(C)CC[C@H](O[C@@H]6O[C@H](C(=O)O)[C@@H](O)[C@H](O[C@@H]7O[C@@H](CO)[C@H](O)[C@H]7O)[C@H]6O[C@@H]6O[C@H](CO)[C@H](O)[C@H](O)[C@H]6O)C(C)(C)[C@@H]5CC[C@]43C)[C@@H]2CC1(C)C` (some centres undefined) [AESCULIOSIDE IVA]: the inhibition result in data set [2] and in [17] was “Active” each time. In addition, the IC50 in data set [16] is 23.8 µM; in [3], 51.8 µM; in data set [4] it was above 250 µM. The inhibition result in data set [18] was “inactive”. The GI50 is 9.91 µM in data set [5], 9.22 µM in [6], 7.26 µM in data set [7] and 17.6 µM in data set [8]. Besides, the GI50 at 48 h in [9] is 4.78 µM.
Take `C/C=C(/C)C(=O)O[C@H]1[C@H](OC(=O)/C(C)=C/C)C(C)(C)C[C@H]2C3=CC[C@@H]4[C@@]5(C)CC[C@H](O[C@@H]6O[C@H](C(=O)O)[C@@H](O)[C@H](O[C@@H]7O[C@@H](CO)[C@H](O)[C@H]7O)[C@H]6O[C@@H]6O[C@H](CO)[C@@H](O)[C@H](O)[C@H]6O)[C@](C)(CO)[C@@H]5CC[C@@]4(C)[C@]3(C)[C@@H](O)[C@@H](O)[C@]21CO` [AESCULIOSIDE IIIE]: in data set [1], the outcome was Active. Besides, in [2], the inhibition entry was “Active”. Also, the IC50 in data set [3] was 45.1 µM; in data set [4] it was above 250 µM. The GI50 came out at 21.3 µM in data set [5], 12.8 µM in data set [6], 14 µM in [7] and 21.4 µM in data set [8]. This compound also returned a GI50 at 48 h in [9] of 21.5 µM.
